Reference: patent US4057530A, “2-Phenyl-indole derivatives and process for preparing the same” (priority 1974, dated 1977)

Tests used:
[1] = Static thermostability of stabilized resin, simplified method (GARDNER sub-scale), Compound C; settings: 210° C
Experimental: (§1) The stabilizing power of the substances of the invention was studied from two points of view:
(§2) These studies were performed with six different formulae of vinyl resins (hereinafter referred to as Compounds).
(§3) The different compounds were mixed and calendered in a mixer of which the cylinders were heated to 160° C. The rigid sheets so obtained were then heated in an oven to a temperature between 180° C and 215° C, until incipient carbonization.
(§4) A stove with rotating drums, ventilated and equipped with a thermostat was used for this operation. In the trials described hereunder, the behaviour of a sheet containing the stabilizer to be tested was compared to that of a sheet of the same formula but containing 2-phenyl-indole as stabilizer.
(§5) 2. It is also possible to use a simplified method which is more rapid and with which valid results are also obtained: a reference scale is drawn up with sheets of thermally treated polyvinyl chloride, of which the colourations have been definitely determined in GARDNER degrees as above. A GARDNER sub-scale is thus obtained in polyvinyl chloride sheets which can be directly compared to the sheets to be tested without using the comparator.

[2] = assay type: physicochemical
Excerpt: The thermostability of Stabilizer 8 and that of 2-phenyl-indole were studied by differential thermoanalysis and by thermogravimetric analysis. […] Diagrams were made out for 2-phenyl-indole (i) and Compound 8 (ii) and enabled the following conclusions to be drawn: […]

[3] = system: mice; test: Acute toxicity by oral route in mice (LD50); assay type: in vivo; settings: LD50 study
Experimental: (§6) The study of the acute toxicity of the stabilizers listed below was carried out by determining the dose of substance which provoked the death of 50% of the treated animals (LD50). A gummy suspension of the substance under study was administered by oral route to groups of at least ten mice and the following results were observed: […]

[4] = Acute toxicity by oral route in mice (LD50); assay type: in vivo; settings: mouse, in vivo, gummy suspension
Experimental: as §6

[5] = Static thermostability of stabilized resin, simplified method (GARDNER sub-scale), Compound D; settings: 185° C
Experimental: as §1, §2, §3, §4, §5

[6] = Sublimation of the stabilizers; assay type: physicochemical; settings: 120° C, 15 Torr, 150 min
Excerpt: A sample of the substance to be tested was introduced into a test tube and heated under reduced pressure. The fraction of sublimated substance was recovered on a mobile cold wall.
After a certain period of time, the sublimated substance was weighed and the result expressed as a percentage of the weight of the starting-material.
The results obtained can only be of relative value, enabling a comparison to be made between two products tested under the same conditions.
Operating conditions (chosen at random).
Temperature of heating 120° C
Temperature of the cold wall
Duration of heating 150 minutes

[7] = Sticking of the stabilized material; settings: cylinders at 210° C, 3 min mixing / 3 min rest
Experimental: Compounds Nos. 609 and 675 were placed in a mixer of the type previously used for studying static thermostability with cylinders at a fixed temperature of 210° C.
They were submitted to alternate periods of 3 minutes of mixing and 3 minutes of rest.

[8] = Thermostability of the stabilizers: thermogravimetric analysis; assay type: physicochemical
Experimental: The thermostability of Stabilizer 8 and that of 2-phenyl-indole were studied by differential thermoanalysis and by thermogravimetric analysis.
This analysis necessitated two series of trials carried out under air and under inert gas (Argon) in order to eliminate any possible effect of oxygen. The results obtained were identical.
The temperature increase rate was 80° C/hour. Thermograms were drawn up under air for both 2-phenyl-indole (i) and for Stabilizer 8 (ii) and enabled the following conclusion to be drawn: […]

[9] = Static thermostability of stabilized resin, simplified method (GARDNER sub-scale), Compound E; settings: 185° C
Experimental: as §1, §2, §3, §4, §5

[10] = Static thermostability of stabilized resin, GARDNER Scale Comparator, Compound B; settings: 210° C
Experimental: as §1, §2, §3, §4
1. The colouration of the sheets, of which samples were removed from the stove at fixed intervals was compared to a standard scale of colouration, known as the GARDNER Scale, and expressed in terms of the reference figures of the GARDNER Scale.
Comparisons were made with a GARDNER Scale Comparator which contains 18 filters of coloured glass and which offers the possibility of observing by transparency and in a limited field of view both the sheet and the reference filters.
Compound B was used and the sheets obtained presented the following characteristics: […]

[11] = Dynamic thermostability of stabilized resin on a plastograph, Compound C; settings: Compounds C and F, 190° C
Experimental: The dynamic thermostability of resins containing respectively 2-(4'-dodecyloxy-phenyl)-indole and 2-phenyl-indole as stabilizers was compared by using the Compounds numbered hereunder:
No. 609: Compound C with 2-phenyl-indole as Stabilizer
No. 675: Compound C with Stabilizer 8
The tests were performed on a plastograph, working at a temperature of 190° C, turning at a speed of 60 r.p.m. and containing a charge of 30 g of gelled material.
Two curves were drawn namely:
a decomposition curve giving the value of the resistant torque (m kg) in relation to time.
From this curve, two important results were obtained: the minimal resistant torque and the time of decomposition.
a curve giving the self-heating time in relation to temperature.
The self-heating time is defined by the moment when the temperature of the sheet exceeds the temperature of the plastograph (190° C).

CCCCCCCCCCCCOc1ccc(-c2cc3ccccc3[nH]2)cc1 [Stabilizer 8, 2-(4'-dodecyloxy-phenyl)-indole]
Colouration of sheet (GARDNER sub-scale) ([1]; 0 min): 1 GARDNER degrees
Colouration of sheet (GARDNER sub-scale) ([1]; 10 min): 1.5 GARDNER degrees
Colouration of sheet (GARDNER sub-scale) ([1]; 20 min): 2 GARDNER degrees
Colouration of sheet (GARDNER sub-scale) ([1]; 30 min): 2.5 GARDNER degrees
Colouration of sheet (GARDNER sub-scale) ([1]; 40 min): < 3 GARDNER degrees
Colouration of sheet (GARDNER sub-scale) ([1]; 50 min): 3 GARDNER degrees
Colouration of sheet (GARDNER sub-scale) ([1]; 55 min): 3 GARDNER degrees
Colouration of sheet (GARDNER sub-scale) ([1]; 60 min): 3.5 GARDNER degrees
Static thermostability compared with 2-phenyl-indole ([1]; after 60 min): superior as a stabilizer to 2-phenyl-indole
Melting temperature [2]: 203 °C
Start of decomposition ([2]; 2° C/minute): 300 °C
Toxic symptoms [3]: none
LD50 [4]: > 5000 mg/kg
Colouration given to the co-polymer [5]: less yellow-coloured than that containing 2-phenyl-indole
Static thermostability compared with 2-phenyl-indole [5]: superior to 2-phenyl-indole
Colouration of sheet (GARDNER sub-scale) ([5]; 0 min): < 1 GARDNER degrees
Colouration of sheet (GARDNER sub-scale) ([5]; 10 min): < 2 GARDNER degrees
Colouration of sheet (GARDNER sub-scale) ([5]; 20 min): 2 GARDNER degrees
Colouration of sheet (GARDNER sub-scale) ([5]; 30 min): < 3 GARDNER degrees
Sublimation relative to 2-phenyl-indole [6]: forty times less than that of 2-phenyl-indole
Percentage of sublimated substance ([6]; cold wall 13° C): 0.6%
Sticking of the stabilized material [7]: comparable
Start of weight loss ([8]; 80° C/hour, under air): about 295 °C
Thermostability of the stabilizer compared with 2-phenyl-indole ([8]; thermogravimetric analysis and differential thermoanalysis): greater thermostability than 2-phenyl-indole
Colouration of sheet (GARDNER sub-scale) ([9]; 0 min): < 1 GARDNER degrees
Colouration of sheet (GARDNER sub-scale) ([9]; 10 min): < 1 GARDNER degrees
Colouration of sheet (GARDNER sub-scale) ([9]; 20 min): < 2 GARDNER degrees
Colouration of sheet (GARDNER sub-scale) ([9]; 30 min): < 3 GARDNER degrees
Colouration of sheet (GARDNER Scale) ([10]; 0 min): 1 GARDNER degrees
Colouration of sheet (GARDNER Scale) ([10]; 3 min): 1 GARDNER degrees
Colouration of sheet (GARDNER Scale) ([10]; 6 min): 2 GARDNER degrees
Colouration of sheet (GARDNER Scale) ([10]; 9 min): 3 GARDNER degrees
Colouration of sheet (GARDNER Scale) ([10]; 12 min): 3 GARDNER degrees
Colouration of sheet (GARDNER Scale) ([10]; 15 min): 5 GARDNER degrees
Colouration of sheet (GARDNER Scale) ([10]; 18 min): 7 GARDNER degrees
Colouration of sheet (GARDNER Scale) ([10]; 21 min): 11 GARDNER degrees
Static thermostability compared with 2-phenyl-indole ([10]; 21 min): clearly superior to 2-phenyl-indole
Thickness of sheet ([10]; after 21 min): 1.30 mm
State of sheet ([10]; after 24 min): burnt
Dynamic thermostability compared with 2-phenyl-indole [11]: slight superiority over 2-phenyl-indole
